In patent US10550105B2 (Ribon Therapeutics Inc., priority 2018, dated 2020):

Biological target: PARP7 (Homo sapiens (Human), UniProt Q7Z3E1)
Experiment: Enzymatic assay for inhibition of PARP7: TR-FRET displacement of biotinylated Probe A from the TIPARP active site
Assay type: binding
Settings: Table A-1
Procedure: 20 nL of a dose response curve of each test compound was spotted in black 384-well polystyrene proxiplates (Perkin Elmer) using a Mosquito (TTP Labtech). […] Reactions were incubated at 25° C. for an additional 30 min, then read on an Envision platereader equipped with a LANCE/DELFIA top mirror (Perkin Elmer) using excitation of 320 nm and emission of 615 nm and […] with a 90 μs delay. The ratio of the 665/615 nm emission were calculated for each well to determine the amount of complex of TIPARP and Probe A in each well. […] The Hill Coefficient is normally allowed to float but may also be fixed at 1 in a 3-parameter fit. Y is the % inhibition and x is the compound concentration.

PARP7, sequence (Q7Z3E1 whole entry): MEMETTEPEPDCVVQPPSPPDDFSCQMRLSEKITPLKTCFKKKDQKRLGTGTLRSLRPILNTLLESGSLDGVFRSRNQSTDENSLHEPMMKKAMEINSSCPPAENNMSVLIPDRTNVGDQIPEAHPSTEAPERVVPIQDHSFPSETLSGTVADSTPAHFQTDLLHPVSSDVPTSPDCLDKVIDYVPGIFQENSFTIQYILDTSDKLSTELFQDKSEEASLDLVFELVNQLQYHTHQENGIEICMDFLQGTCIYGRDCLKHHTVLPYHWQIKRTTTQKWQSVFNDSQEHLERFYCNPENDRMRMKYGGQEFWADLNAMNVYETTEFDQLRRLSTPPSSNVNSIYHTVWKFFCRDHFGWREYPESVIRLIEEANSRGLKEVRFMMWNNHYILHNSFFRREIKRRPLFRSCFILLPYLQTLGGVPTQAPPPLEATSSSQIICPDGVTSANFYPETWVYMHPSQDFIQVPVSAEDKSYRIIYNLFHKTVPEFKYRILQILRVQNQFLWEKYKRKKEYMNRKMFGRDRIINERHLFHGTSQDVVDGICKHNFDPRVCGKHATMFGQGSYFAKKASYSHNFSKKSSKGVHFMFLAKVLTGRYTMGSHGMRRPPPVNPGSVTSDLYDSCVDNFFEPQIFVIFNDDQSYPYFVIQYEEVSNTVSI

| Molecule | IC50 |
| --- | --- |
| 6-(4-[3-[(2R)-2-[[6-Oxo-5-(trifluoromethyl)-1,6-dihydropyridazin-4-yl]amino]-2-phenylethoxy]propanoyl]piperazin-1-yl)pyridine-3-carbonitrile [Example 515A] | ≥ 1 µM |
| 6-[4-(3-[[(1S,2S)-1-[[6-Oxo-5-(trifluoromethyl)-1-[[2-(trimethylsilyl)ethoxy]methyl]-1,6-dihydropyridazin-4-yl]amino]-2,3-dihydro-1H-inden-2-yl]oxy]propanoyl)piperazin-1-yl]pyridine-3-carbonitrile [Example 537 Isomer A] | ≥ 1 µM |
| COC[C@@H](COCCC(=O)N1CCN(c2ncc(Cl)cn2)CC1)Oc1cn[nH]c(=O)c1C(F)(F)F (single isomer, unassigned) [listing 1 of 2 here] | < 0.1 µM |
| COC[C@H](COCCC(=O)N1CCN(c2ncc(Cl)cn2)CC1)Oc1cn[nH]c(=O)c1C(F)(F)F (single isomer, unassigned) | 0.1 to 1 µM |
| COC[C@@H](COCCC(=O)N1CCN(c2ncc(Cl)cn2)CC1)Oc1cn[nH]c(=O)c1C(F)(F)F (single isomer, unassigned) [listing 2 of 2 here] | < 0.1 µM |
| N#Cc1ccc(N2CCN(C(=O)c3cccc(OC[C@H]4c5ccccc5CN4c4cn[nH]c(=O)c4C(F)(F)F)c3)CC2)nc1 (single isomer, unassigned) [Example 18 Isomer A] | 0.1 to 1 µM |
| O=C(c1cccc(OC[C@H]2c3ccccc3CN2c2cn[nH]c(=O)c2C(F)(F)F)c1)N1CCN(c2ccc(C(F)(F)F)cn2)CC1 (single isomer, unassigned) [Example 30 Isomer A] | ≥ 1 µM |
| O=C(c1cccc(OC[C@@H]2c3ccccc3CN2c2cn[nH]c(=O)c2C(F)(F)F)c1)N1CCN(c2ccc(C(F)(F)F)cn2)CC1 (single isomer, unassigned) [Example 30 Isomer B] | < 0.1 µM |
| N#Cc1ccc(N2CCN(C(=O)c3ccc(OC[C@@H]4c5ccccc5CN4c4cn[nH]c(=O)c4C(F)(F)F)cc3)CC2)nc1 (single isomer, unassigned) [Example 35 Isomer A] | ≥ 1 µM |
| N#Cc1ccc(N2CCN(C(=O)c3ccc(OC[C@H]4c5ccccc5CN4c4cn[nH]c(=O)c4C(F)(F)F)cc3)CC2)nc1 (single isomer, unassigned) [Example 35 Isomer B] | 0.1 to 1 µM |
| N#Cc1ccc(N2CCN(C(=O)c3ccnc(OC[C@@H]4c5ccccc5CN4c4cn[nH]c(=O)c4C(F)(F)F)c3)CC2)nc1 (single isomer, unassigned) [Example 36 Isomer B] | < 0.1 µM |
| N#Cc1ccc(N2CCN(C(=O)c3ccnc(OC[C@@H]4c5ccccc5CN4c4cn[nH]c(=O)c4C(F)(F)F)n3)CC2)nc1 (single isomer, unassigned) [Example 38 Isomer A] | < 0.1 µM |
| N#Cc1ccc(N2CCN(C(=O)[C@@H]3CNC[C@@H](OC[C@@H]4CCCN4c4cn[nH]c(=O)c4C(F)(F)F)C3)CC2)nc1 (single isomer, unassigned) [Example 56 Isomer A] | < 0.1 µM |
| N#Cc1ccc(N2CCN(C(=O)[C@H]3CNC[C@H](OC[C@@H]4CCCN4c4cn[nH]c(=O)c4C(F)(F)F)C3)CC2)nc1 (single isomer, unassigned) [Example 56 Isomer B] | 0.1 to 1 µM |
| N#Cc1ccc(N2CCN(C(=O)[C@H]3CCC[C@H](OC[C@@H]4CCCN4c4cn[nH]c(=O)c4C(F)(F)F)C3)CC2)nc1 (single isomer, unassigned) [Example 57 Isomer A] | 0.1 to 1 µM |
| N#Cc1ccc(N2CCN(C(=O)[C@@H]3CCC[C@@H](OC[C@@H]4CCCN4c4cn[nH]c(=O)c4C(F)(F)F)C3)CC2)nc1 (single isomer, unassigned) [Example 57 Isomer B] | < 0.1 µM |
| N#Cc1ccc(N2CCN(C(=O)[C@H]3CCC[C@@H](OC[C@@H]4CCCN4c4cn[nH]c(=O)c4C(F)(F)F)C3)CC2)nc1 (single isomer, unassigned) [Example 57 Isomer C] | 0.1 to 1 µM |
| N#Cc1ccc(N2CCN(C(=O)[C@@H]3CCC[C@H](OC[C@@H]4CCCN4c4cn[nH]c(=O)c4C(F)(F)F)C3)CC2)nc1 (single isomer, unassigned) [Example 57 Isomer D] | 0.1 to 1 µM |
| N#Cc1cnc(N2CCN(C(=O)c3cc(OC[C@H]4c5ccccc5CN4c4cn[nH]c(=O)c4C(F)(F)F)ccn3)CC2)nc1 (single isomer, unassigned) [Example 64 Isomer A] | ≥ 1 µM |
| N#Cc1cnc(N2CCN(C(=O)c3cc(OC[C@@H]4c5ccccc5CN4c4cn[nH]c(=O)c4C(F)(F)F)ccn3)CC2)nc1 (single isomer, unassigned) [Example 64 Isomer B] | < 0.1 µM |
| N#Cc1ccc(N2CCN(C(=O)c3cncc(OC[C@@H]4c5ccccc5CN4c4cn[nH]c(=O)c4C(F)(F)F)n3)CC2)nc1 (single isomer, unassigned) [Example 72 Isomer A] | < 0.1 µM |
| N#Cc1ccc(N2CCN(C(=O)CCOC[C@H]3c4ccccc4CN3c3cn[nH]c(=O)c3C(F)(F)F)CC2)nc1 (single isomer, unassigned) [Example 93 Isomer B] | 0.1 to 1 µM |
| C[C@H](COC[C@@H]1CCCN1c1cn[nH]c(=O)c1C(F)(F)F)C(=O)N1CCN(c2ccc(C#N)cn2)CC1 (single isomer, unassigned) [Example 94 Isomer A] | < 0.1 µM |

| Molecule | IC50 |
| --- | --- |
| C[C@@H](COC[C@@H]1CCCN1c1cn[nH]c(=O)c1C(F)(F)F)C(=O)N1CCN(c2ccc(C#N)cn2)CC1 (single isomer, unassigned) [Example 94 Isomer B] | < 0.1 µM |
| N#Cc1ccc(N2CCN(C(=O)C/C=C\OC[C@@H]3CCCN3c3cn[nH]c(=O)c3C(F)(F)F)CC2)nc1 (single isomer, unassigned) [Example 96 Isomer A] | < 0.1 µM |
| N#Cc1ccc(N2CCN(C(=O)/C=C/COC[C@@H]3CCCN3c3cn[nH]c(=O)c3C(F)(F)F)CC2)nc1 (single isomer, unassigned) [Example 96 Isomer B] | < 0.1 µM |
| O=C(C[C@@H]1CC[C@H]([C@@H]2CCCN2c2cn[nH]c(=O)c2C(F)(F)F)O1)N1CCN(c2ncc(Cl)cn2)CC1 (single isomer, unassigned) [Example 147C] | 0.1 to 1 µM |
| O=c1[nH]ncc(N2Cc3cccc(OC[C@@H]4CCCO4)c3C2)c1C(F)(F)F (single isomer, unassigned) [Example 222] | < 0.1 µM |
| COC[C@H](COCCC(=O)N1CCN(c2ccc(C#N)cn2)CC1)Nc1cn[nH]c(=O)c1C(F)(F)F (single isomer, unassigned) [Example 518A] | ≥ 1 µM |
| COC[C@@H](COCCC(=O)N1CCN(c2ccc(C#N)cn2)CC1)Nc1cn[nH]c(=O)c1C(F)(F)F (single isomer, unassigned) [Example 518B] | < 0.1 µM |
| COC[C@@H](COCCC(=O)N1CCN(c2ccc(C#N)cn2)CC1)Oc1cn[nH]c(=O)c1C(F)(F)F (single isomer, unassigned) [Example 532 Isomer A] | < 0.1 µM |
| COC[C@H](COCCC(=O)N1CCN(c2ccc(C#N)cn2)CC1)Oc1cn[nH]c(=O)c1C(F)(F)F (single isomer, unassigned) [Example 532 Isomer B] | 0.1 to 1 µM |
| N#Cc1ccc(N2CCN(C(=O)CCO[C@@H]3Cc4ccccc4[C@H]3Nc3cn[nH]c(=O)c3C(F)(F)F)CC2)nc1 (single isomer, unassigned) [Example 537 Isomer B] | < 0.1 µM |
| C[C@H](CC(=O)N1CCN(c2ccc(C#N)cn2)CC1)OCCOc1cn[nH]c(=O)c1C(F)(F)F (single isomer, unassigned) [Example 538 Isomer A] | 0.1 to 1 µM |
| C[C@@H](CC(=O)N1CCN(c2ccc(C#N)cn2)CC1)OCCOc1cn[nH]c(=O)c1C(F)(F)F (single isomer, unassigned) [Example 538 Isomer B] | < 0.1 µM |
| C[C@@H](COCCC(=O)N1CCN(c2ccc(Cl)cn2)CC1)Oc1cn[nH]c(=O)c1C(F)(F)F (single isomer, unassigned) [Example 539 Isomer A] | < 0.1 µM |
| C[C@@H](COc1cn[nH]c(=O)c1C(F)(F)F)OCCC(=O)N1CCN(c2ccc(Cl)cn2)CC1 (single isomer, unassigned) [Example 539 Isomer B] | 0.1 to 1 µM |
| C[C@H](COc1cn[nH]c(=O)c1C(F)(F)F)OCCC(=O)N1CCN(c2ccc(Cl)cn2)CC1 (single isomer, unassigned) [Example 539 Isomer C] | < 0.1 µM |
| C[C@H](COCCC(=O)N1CCN(c2ccc(Cl)cn2)CC1)Oc1cn[nH]c(=O)c1C(F)(F)F (single isomer, unassigned) [Example 539 Isomer D] | 0.1 to 1 µM |
| C[C@@H](COCCC(=O)N1CCN(c2ncc(Cl)cn2)CC1)Oc1cn[nH]c(=O)c1C(F)(F)F (single isomer, unassigned) [Example 543 Isomer A] | < 0.1 µM |
| C[C@@H](COc1cn[nH]c(=O)c1C(F)(F)F)OCCC(=O)N1CCN(c2ncc(Cl)cn2)CC1 (single isomer, unassigned) [Example 543 Isomer B] | < 0.1 µM |
| C[C@H](COc1cn[nH]c(=O)c1C(F)(F)F)OCCC(=O)N1CCN(c2ncc(Cl)cn2)CC1 (single isomer, unassigned) [Example 543 Isomer C] | < 0.1 µM |
| C[C@@H](COCCC(=O)N1CCN(c2ncc(C(F)(F)F)cn2)CC1)Oc1cn[nH]c(=O)c1C(F)(F)F (single isomer, unassigned) [Example 544 Isomer A] | < 0.1 µM |
| C[C@H](COCCC(=O)N1CCN(c2ncc(C(F)(F)F)cn2)CC1)Oc1cn[nH]c(=O)c1C(F)(F)F (single isomer, unassigned) [Example 544 Isomer B] | 0.1 to 1 µM |
| C[C@@H](COc1cn[nH]c(=O)c1C(F)(F)F)OCCC(=O)N1CCN(c2ncc(C(F)(F)F)cn2)CC1 (single isomer, unassigned) [Example 544 Isomer C] | < 0.1 µM |
| C[C@H](COc1cn[nH]c(=O)c1C(F)(F)F)OCCC(=O)N1CCN(c2ncc(C(F)(F)F)cn2)CC1 (single isomer, unassigned) [Example 544 Isomer D] | 0.1 to 1 µM |
